# Measured values as given in patent US20210379085A1, “HALOGENATED SALICYLANILIDES FOR TREATING THE SYMPTOMS OF DERMATITIS” (Union Therapeutics A/S, priority 2018, published 2021).
# Assays:
# [1] = system: skin barrier and inflammation biomarkers in lesional skin biopsies; test: qRT-PCR (TLDA) biomarker gene expression in lesional skin biopsies (Example 3); assay type: in vivo, human; settings: fold change, topical niclosamide 2% once daily 3 weeks, AD lesional skin
# Procedure: Patients received topical applications of a niclosamide 2% composition and vehicle once daily for 3 weeks, followed by a 1-week follow up period. Topical niclosamide 2% and vehicle was applied on two separate target lesions of atopic dermatitis (lesions of at least 3×3-cm that are at least 2 cm apart, excluding the face, scalp, genitals, hands, and feet). The application areas (5×5-cm) were randomized (1:1) to once daily application of niclosamide 2% or vehicle at 5 mg/cm^2 without occlusion 6 days per week. Patients came to the study site for all study product application for a total of 3 weeks.
# Skin barrier and inflammation biomarker levels were determined from lesional skin biopsies from application areas.
# The skin biopsy samples were analysed by immunohistochemistry (IHC), and by gene expression studies by RT-PCR using TaqMan Low Density Array (TLDA), and by microarray using Affymetrix U133A Plus 2. The immunohistochemistry (IHC) was used to analyse cell biomarkers. The methodologies as disclosed by Guttman-Yassky et al, “Major differences in inflammatory dendritic cells and their products distinguish atopic dermatitis from psoriasis”, The Journal of Allergy and Clinical Immunology, vol. 119, issue 5, pages 1210-1217, 2007, were followed except for that U133A Plus 2-set Gene Chip probe arrays was used instead of U95A-set Gene Chip probe arrays.
# Expression values (threshold cycle [Ct]) were normalized to Rplp0 by negatively transforming the Ct values to −dCt (IL17A was normalized to hARP, as analysed by qPCR). The undetected −dCt values were estimated for each gene as the 20% of the minimum across all samples. qRT-PCR expression data were modelled using a mixed effect model with Visit and Treatment Area as a fixed effect and a random intercept for each patient. This formulation intrinsically models the within patient correlation structure as in the case of a paired t-test. This approach introduces less bias than restricting the analysis for those patients who completed the study. Contrasts were used to estimate the fold changes with treatment within each treatment group and conduct hypothesis testing.
# [2] = Systemic exposure to niclosamide (serum) after topical application in healthy volunteers; assay type: in vivo; settings: human, after topical niclosamide formulations twice daily 7 days and final dose Day 8
# Procedure: The skin biopsies were taken using sterile single use disposable biopsy punches (BP40F, Kai Europe GmbH, Solingen, Germany). For the 6 non-treated healthy volunteers biopsies were taken on Day 1. 10 mL of blood was collected at day 1 for the method validation group to determine niclosamide concentration in the blood.
# [3] = Day 22, vs vehicle-treated lesion
# [4] = Day 22 vs baseline, listed as niclosamide
smiles,measurement,setting,value
"O=C(Nc1ccc([N+](=O)[O-])cc1Cl)c1cc(Cl)ccc1O [Niclosamide, niclosamide]","CAMP expression, Niclosamide vs. Vehicle (qRT-PCR)",[1]; [3],−1.33
same,"CCL5 expression, Niclosamide vs. Vehicle (qRT-PCR)",[1]; [3],−1.03
same,"CCL17 expression, Niclosamide vs. Vehicle (qRT-PCR)",[1]; [3],−1.37
same,"CCL18 expression, Niclosamide vs. Vehicle (qRT-PCR)",[1]; [3],−2.02
same,"CCL20 expression, Niclosamide vs. Vehicle (qRT-PCR)",[1]; [3],−2.25
same,"CCL22 expression, Niclosamide vs. Vehicle (qRT-PCR)",[1]; [3],−1.49
same,"CCL26 expression, Niclosamide vs. Vehicle (qRT-PCR)",[1]; [3],−1.49
same,"CXCL1 expression, Niclosamide vs. Vehicle (qRT-PCR)",[1]; [3],−1.63
same,"CXCL2 expression, Niclosamide vs. Vehicle (qRT-PCR)",[1]; [3],−1.21
same,"CXCL9 expression, Niclosamide vs. Vehicle (qRT-PCR)",[1]; [3],1.16
same,"CXCL10 expression, Niclosamide vs. Vehicle (qRT-PCR)",[1]; [3],−1.10
same,"DEFB4A/DEFB4B expression, Niclosamide vs. Vehicle (qRT-PCR)",[1]; [3],−2.06
same,"FLG expression, Niclosamide vs. Vehicle (qRT-PCR)",[1]; [3],1.30
same,"FOXP3 expression, Niclosamide vs. Vehicle (qRT-PCR)",[1]; [3],−1.14
same,"IFNg expression, Niclosamide vs. Vehicle (qRT-PCR)",[1]; [3],1.19
same,"IL1B expression, Niclosamide vs. Vehicle (qRT-PCR)",[1]; [3],−1.01
same,"IL2 expression, Niclosamide vs. Vehicle (qRT-PCR)",[1]; [3],−1.36
same,"IL5 expression, Niclosamide vs. Vehicle (qRT-PCR)",[1]; [3],−1.47
same,"IL6 expression, Niclosamide vs. Vehicle (qRT-PCR)",[1]; [3],−1.24
same,"IL8 expression, Niclosamide vs. Vehicle (qRT-PCR)",[1]; [3],−1.46
same,"IL9 expression, Niclosamide vs. Vehicle (qRT-PCR)",[1]; [3],−1.17
same,"IL10 expression, Niclosamide vs. Vehicle (qRT-PCR)",[1]; [3],−1.51
same,"IL12A expression, Niclosamide vs. Vehicle (qRT-PCR)",[1]; [3],1.09
same,"IL12B expression, Niclosamide vs. Vehicle (qRT-PCR)",[1]; [3],−1.42
same,"IL13 expression, Niclosamide vs. Vehicle (qRT-PCR)",[1]; [3],−1.59
same,"IL15RA expression, Niclosamide vs. Vehicle (qRT-PCR)",[1]; [3],−1.12
same,"IL15 expression, Niclosamide vs. Vehicle (qRT-PCR)",[1]; [3],−1.14
same,"IL17A expression, Niclosamide vs. Vehicle (qRT-PCR)",[1]; [3],−1.40
same,"IL17C expression, Niclosamide vs. Vehicle (qRT-PCR)",[1]; [3],−2.35
same,"IL17F expression, Niclosamide vs. Vehicle (qRT-PCR)",[1]; [3],1.37
same,"IL19 expression, Niclosamide vs. Vehicle (qRT-PCR)",[1]; [3],1.16
same,"IL22 expression, Niclosamide vs. Vehicle (qRT-PCR)",[1]; [3],−1.97
same,"IL23A expression, Niclosamide vs. Vehicle (qRT-PCR)",[1]; [3],−1.37
same,"IL31 expression, Niclosamide vs. Vehicle (qRT-PCR)",[1]; [3],−1.46
same,"IL33 expression, Niclosamide vs. Vehicle (qRT-PCR)",[1]; [3],1.11
same,"KRT16 expression, Niclosamide vs. Vehicle (qRT-PCR)",[1]; [3],−1.60
same,"LOR expression, Niclosamide vs. Vehicle (qRT-PCR)",[1]; [3],1.27
same,"MMP12 expression, Niclosamide vs. Vehicle (qRT-PCR)",[1]; [3],−1.90
same,"PI3 expression, Niclosamide vs. Vehicle (qRT-PCR)",[1]; [3],−1.93
same,"PPL expression, Niclosamide vs. Vehicle (qRT-PCR)",[1]; [3],1.04
same,"S100A7 expression, Niclosamide vs. Vehicle (qRT-PCR)",[1]; [3],−2.20
same,"S100A8 expression, Niclosamide vs. Vehicle (qRT-PCR)",[1]; [3],−2.02
same,"S100A9 expression, Niclosamide vs. Vehicle (qRT-PCR)",[1]; [3],−1.97
same,"S100A12 expression, Niclosamide vs. Vehicle (qRT-PCR)",[1]; [3],−2.11
same,"TSLPR expression, Niclosamide vs. Vehicle (qRT-PCR)",[1]; [3],−1.36
same,"CAMP expression, Niclosamide vs. Predose (qRT-PCR)",[1]; Day 22 vs baseline,−3.02
same,"CCL5 expression, Niclosamide vs. Predose (qRT-PCR)",[1]; Day 22 vs baseline,−1.22
same,"CCL17 expression, Niclosamide vs. Predose (qRT-PCR)",[1]; Day 22 vs baseline,−2.02
same,"CCL18 expression, Niclosamide vs. Predose (qRT-PCR)",[1]; Day 22 vs baseline,−2.45
same,"CCL20 expression, Niclosamide vs. Predose (qRT-PCR)",[1]; Day 22 vs baseline,−1.96
same,"CCL22 expression, Niclosamide vs. Predose (qRT-PCR)",[1]; Day 22 vs baseline,−1.95
same,"CCL26 expression, Niclosamide vs. Predose (qRT-PCR)",[1]; Day 22 vs baseline,−1.03
same,"CXCL1 expression, Niclosamide vs. Predose (qRT-PCR)",[1]; Day 22 vs baseline,−2.80
same,"CXCL2 expression, Niclosamide vs. Predose (qRT-PCR)",[1]; Day 22 vs baseline,−1.89
same,"CXCL9 expression, Niclosamide vs. Predose (qRT-PCR)",[1]; Day 22 vs baseline,−1.51
same,"CXCL10 expression, Niclosamide vs. Predose (qRT-PCR)",[1]; Day 22 vs baseline,−1.64
same,"DEFB4A/DEFB4B expression, Niclosamide vs. Predose (qRT-PCR)",[1]; Day 22 vs baseline,−4.09
same,"FLG expression, Niclosamide vs. Predose (qRT-PCR)",[1]; Day 22 vs baseline,1.50
same,"FOXP3 expression, Niclosamide vs. Predose (qRT-PCR)",[1]; Day 22 vs baseline,−1.39
same,"IFNg expression, Niclosamide vs. Predose (qRT-PCR)",[1]; Day 22 vs baseline,−1.11
same,"IL1B expression, Niclosamide vs. Predose (qRT-PCR)",[1]; Day 22 vs baseline,−1.64
same,"IL2 expression, Niclosamide vs. Predose (qRT-PCR)",[1]; Day 22 vs baseline,−1.20
same,"IL5 expression, Niclosamide vs. Predose (qRT-PCR)",[1]; Day 22 vs baseline,−2.38
same,"IL6 expression, Niclosamide vs. Predose (qRT-PCR)",[1]; Day 22 vs baseline,−2.34
same,"IL8 expression, Niclosamide vs. Predose (qRT-PCR)",[1]; Day 22 vs baseline,−3.78
same,"IL9 expression, Niclosamide vs. Predose (qRT-PCR)",[1]; Day 22 vs baseline,−1.91
same,"IL10 expression, Niclosamide vs. Predose (qRT-PCR)",[1]; Day 22 vs baseline,−1.85
same,"IL12A expression, Niclosamide vs. Predose (qRT-PCR)",[1]; Day 22 vs baseline,−1.01
same,"IL12B expression, Niclosamide vs. Predose (qRT-PCR)",[1]; Day 22 vs baseline,−2.01
same,"IL13 expression, Niclosamide vs. Predose (qRT-PCR)",[1]; Day 22 vs baseline,−2.06
same,"IL15RA expression, Niclosamide vs. Predose (qRT-PCR)",[1]; Day 22 vs baseline,−1.46
same,"IL15 expression, Niclosamide vs. Predose (qRT-PCR)",[1]; Day 22 vs baseline,−1.47
same,"IL17A expression, Niclosamide vs. Predose (qRT-PCR)",[1]; Day 22 vs baseline,−2.23
same,"IL17C expression, Niclosamide vs. Predose (qRT-PCR)",[1]; Day 22 vs baseline,−3.24
same,"IL17F expression, Niclosamide vs. Predose (qRT-PCR)",[1]; Day 22 vs baseline,1.02
same,"IL19 expression, Niclosamide vs. Predose (qRT-PCR)",[1]; Day 22 vs baseline,−3.26
same,"IL22 expression, Niclosamide vs. Predose (qRT-PCR)",[1]; Day 22 vs baseline,−2.86
same,"IL23A expression, Niclosamide vs. Predose (qRT-PCR)",[1]; Day 22 vs baseline,−2.13
same,"IL31 expression, Niclosamide vs. Predose (qRT-PCR)",[1]; Day 22 vs baseline,−1.85
same,"IL33 expression, Niclosamide vs. Predose (qRT-PCR)",[1]; Day 22 vs baseline,−1.08
same,"KRT16 expression, Niclosamide vs. Predose (qRT-PCR)",[1]; Day 22 vs baseline,−3.88
same,"LOR expression, Niclosamide vs. Predose (qRT-PCR)",[1]; Day 22 vs baseline,1.67
same,"MMP12 expression, Niclosamide vs. Predose (qRT-PCR)",[1]; Day 22 vs baseline,−3.27
same,"PI3 expression, Niclosamide vs. Predose (qRT-PCR)",[1]; Day 22 vs baseline,−4.52
same,"PPL expression, Niclosamide vs. Predose (qRT-PCR)",[1]; Day 22 vs baseline,−1.07
same,"S100A7 expression, Niclosamide vs. Predose (qRT-PCR)",[1]; Day 22 vs baseline,−3.04
same,"S100A8 expression, Niclosamide vs. Predose (qRT-PCR)",[1]; Day 22 vs baseline,−3.85
same,"S100A9 expression, Niclosamide vs. Predose (qRT-PCR)",[1]; Day 22 vs baseline,−3.47
same,"S100A12 expression, Niclosamide vs. Predose (qRT-PCR)",[1]; Day 22 vs baseline,−4.29
same,"TSLPR expression, Niclosamide vs. Predose (qRT-PCR)",[1]; Day 22 vs baseline,−1.82
same,"FLG expression, Niclosamide vs. Predose (qRT-PCR)",[1]; [4],increased significantly
same,"LOR expression, Niclosamide vs. Predose (qRT-PCR)",[1]; [4],increased significantly
same,concentration at 8 day,[2],0.24 ng/mL
